Assay results: patent US6403794B2, “Substituted 2-amino-4-alkylamino-1,3,5-triazines as herbicides” (Bayer Aktiengesellschaft, priority 1996, dated 2002)
Read-outs that look alike come from different tables or passages of the source.

Legend:
Format in all cases: in vivo
Xanthium = test: Post-emergence test; settings: greenhouse, 1000 g of ai./ha, after three weeks
Protocol: (§1) Solvent: 5 parts by weight of acetone
(§2) Emulsifier: 1 part by weight of alkylaryl polyglycol ether
(§3) To produce a suitable preparation of active compound, 1 part by weight of active compound is mixed with the stated amount of solvent, the stated amount of emulsifier is added and the concentrate is diluted with water to the desired concentration.
(§4) Test plants which have a height of 5-15 cm are sprayed with the preparation of active compound such that the particular amounts of active compounds desired are applied per unit area. The concentration of the spray liquor is chosen so that the particular amounts of active compound desired are applied in 1000 l of water/ha.
(§5) After three weeks, the degree of damage to the plants is scored visually in % damage, in comparison to the untreated control.
(§6) 0%=no effect (like untreated control)

Alopecurus [1] = test: Post-emergence test; settings: greenhouse, 1000 g of ai./ha, after three weeks
Protocol: as §1, §2, §3, §4, §5, §6

Setaria [2] = test: Post-emergence test; settings: for pest or weed control at 1000 g/ha / pest or weed control at 500 g/ha: Setaria, 504 h, read-out: degree of damage to the plants (% damage), Setaria; for pest or weed control at 500 g/ha: 500 g of ai./ha
Protocol: as §1, §2, §3, §4, §5, §6

Cyperus = test: Post-emergence test; settings: greenhouse, 1000 g of ai./ha, after three weeks
Protocol: as §1, §2, §3, §4, §5, §6

Amaranthus [3] = test: Post-emergence test; settings: for pest or weed control at 1000 g/ha / pest or weed control at 500 g/ha: Amaranthus, 504 h, read-out: degree of damage to the plants (% damage), Amaranthus; for pest or weed control at 500 g/ha: 500 g of ai./ha
Protocol: as §1, §2, §3, §4, §5, §6

Abutilon [4] = test: Post-emergence test; settings: greenhouse, 1000 g of ai./ha, after three weeks
Protocol: as §1, §2, §3, §4, §5, §6

Sinapis = test: Post-emergence test; settings: greenhouse, 1000 g of ai./ha, after three weeks
Protocol: as §1, §2, §3, §4, §5, §6

weeds [5] = test: Post-emergence test
Protocol: as §1, §2, §3, §4, §5, §6

Avena fatua = test: Post-emergence test; settings: greenhouse, 1000 g of ai./ha, after three weeks
Protocol: as §1, §2, §3, §4, §5, §6

Solanum = test: Post-emergence test; settings: greenhouse, 500 g of ai./ha, after three weeks
Protocol: as §1, §2, §3, §4, §5, §6

Echinochloa = test: Post-emergence test; settings: greenhouse, 500 g of ai./ha, after three weeks
Protocol: as §1, §2, §3, §4, §5, §6

Ipomoea = test: Post-emergence test; settings: greenhouse, 500 g of ai./ha, after three weeks
Protocol: as §1, §2, §3, §4, §5, §6

Polygonum = test: Post-emergence test; settings: greenhouse, 500 g of ai./ha, after three weeks
Protocol: as §1, §2, §3, §4, §5, §6

Alopecurus [6] = test: Pre-emergence test; settings: greenhouse, 1000 g of ai./ha, after three weeks
Protocol: as §1, §2, §3
(§7) Seeds of the test plants are sown in normal soil. After about 24 hours, the soil is watered with the preparation of active compound. The amount of water per unit area is advantageously kept constant. The concentration of active compound in the preparation is immaterial, only the application rate of active compound per unit area matters.
(§8) After three weeks, the degree of damage to the plants is scored visually in % damage in comparison to the development of the untreated control.
as §6

Amaranthus [7] = test: Pre-emergence test; settings: for pest or weed control at 1000 g/ha: Amaranthus, 504 h, read-out: degree of damage to the plants (% damage), Amaranthus
Protocol: as §1, §2, §3, §7, §8, §6

Abutilon [8] = test: Pre-emergence test; settings: for pest or weed control at 1000 g/ha: Abutilon, 504 h, read-out: degree of damage to the plants (% damage), Abutilon
Protocol: as §1, §2, §3, §7, §8, §6

weeds [9] = test: Pre-emergence test
Protocol: as §1, §2, §3, §7, §8, §6

Galium [10] = test: Pre-emergence test; settings: greenhouse, 1000 g of ai./ha, after three weeks
Protocol: as §1, §2, §3, §7, §8, §6

Setaria [11] = test: Pre-emergence test; settings: greenhouse, 1000 g of ai./ha, after three weeks
Protocol: as §1, §2, §3, §7, §8, §6

Galium [12] = test: Post-emergence test; settings: greenhouse, 1000 g of ai./ha, after three weeks
Protocol: as §1, §2, §3, §4, §5, §6

Wheat = test: Post-emergence test; settings: greenhouse, 500 g of ai./ha, after three weeks
Protocol: as §1, §2, §3, §4, §5, §6

[13] = greenhouse, 1000 g of ai./ha, after three weeks

| Compound | degree of damage to the plants (% damage), Xanthium (Xanthium) | degree of damage to the plants (% damage), Alopecurus (Alopecurus [1]) | degree of damage to the plants (% damage), Abutilon (Abutilon [4]) | activity against weeds (weeds [5]) | degree of damage to the plants (% damage), Alopecurus (Alopecurus [6]) | activity against weeds (weeds [9]) | degree of damage to the plants (% damage), Galium (Galium [10]) | degree of damage to the plants (% damage), Galium (Galium [12]) | other results |
| --- | --- | --- | --- | --- | --- | --- | --- | --- | --- |
| CCC(CCc1cccs1)Nc1nc(N)nc(C(C)F)n1 (stereo not drawn) [Example 23] | 100% | 90% | 100% | strong activity |  |  |  |  | pest or weed control at 1000 g/ha (Setaria [2]; [13]): 100%; degree of damage to the plants (% damage), Cyperus (Cyperus): 100%; pest or weed control at 1000 g/ha (Amaranthus [3]; [13]): 100%; degree of damage to the plants (% damage), Sinapis (Sinapis): 100%; degree of damage to the plants (% damage), Avena fatua (Avena fatua): 100% |
| CCC(CCc1cccs1)Nc1nc(N)nc(C(C)(C)F)n1 (stereo not drawn) [Example 24] |  |  |  | strong activity |  |  |  |  | degree of damage to the plants (% damage), Solanum (Solanum): 95%; pest or weed control at 500 g/ha (Setaria [2]; greenhouse, after three weeks): 80%; pest or weed control at 500 g/ha (Amaranthus [3]; greenhouse, after three weeks): 100%; degree of damage to the plants (% damage), Echinochloa (Echinochloa): 100%; degree of damage to the plants (% damage), Ipomoea (Ipomoea): 100%; degree of damage to the plants (% damage), Polygonum (Polygonum): 95% |
| CC(C)C(CCc1ccc(Cl)cc1)Nc1nc(N)nc(C(C)(C)F)n1 (stereo not drawn) [Example 29] |  |  |  |  | 70% | strong activity | 80% |  | pest or weed control at 1000 g/ha (Amaranthus [7]): 80%; pest or weed control at 1000 g/ha (Abutilon [8]): 80% |
| CCC(CCc1ccccc1)Nc1nc(N)nc(C(F)(F)F)n1 (stereo not drawn) [Example 41] | 100% | 80% | 100% | strong activity | 90% | strong activity | 95% | 100% | degree of damage to the plants (% damage), Setaria (Setaria [11]): 100%; pest or weed control at 1000 g/ha (Amaranthus [7]; [13]): 100%; pest or weed control at 1000 g/ha (Abutilon [8]; [13]): 100%; pest or weed control at 1000 g/ha (Setaria [2]; [13]): 100%; pest or weed control at 1000 g/ha (Amaranthus [3]; [13]): 100% |
| CCC(CCc1ccccc1)Nc1nc(N)nc(C(F)(F)F)n1 (stereo not drawn) [Example 43] | 100% |  | 100% | strong activity |  |  |  | 70% | degree of damage to the plants (% damage), Solanum (Solanum): 100%; degree of damage to the plants (% damage), Wheat (Wheat): 10%; pest or weed control at 500 g/ha (Setaria [2]; greenhouse, after three weeks): 90%; degree of damage to the plants (% damage), Setaria (Setaria [2]; [13]): 100%; pest or weed control at 500 g/ha (Amaranthus [3]; greenhouse, after three weeks): 100%; degree of damage to the plants (% damage), Amaranthus (Amaranthus [3]; [13]): 100%; degree of damage to the plants (% damage), Ipomoea (Ipomoea): 100%; degree of damage to the plants (% damage), Polygonum (Polygonum): 100% |
| CCC(COc1ccc(Cl)cc1)Nc1nc(N)nc(C(F)(F)F)n1 (stereo not drawn) [Example 44] | 100% | 80% | 100% | strong activity |  |  |  | 80% | pest or weed control at 1000 g/ha (Setaria [2]): 100%; pest or weed control at 1000 g/ha (Amaranthus [3]): 100% |
| CCC(CCc1ccccc1)Nc1nc(N)nc(C(F)(F)F)n1 (stereo not drawn) [Example 45] | 80% | 80% | 100% | strong activity | 80% | strong activity | 100% | 100% | degree of damage to the plants (% damage), Setaria (Setaria [11]): 95%; degree of damage to the plants (% damage), Amaranthus (Amaranthus [7]; [13]): 100%; degree of damage to the plants (% damage), Abutilon (Abutilon [8]; [13]): 100%; degree of damage to the plants (% damage), Setaria (Setaria [2]; [13]): 100%; degree of damage to the plants (% damage), Amaranthus (Amaranthus [3]; [13]): 100% |
